# In paper PMC9851200, “Multiparameter phenotypic screening for endogenous TFEB and TFE3 translocation identifies novel chemical series modulating lysosome function” (Autophagy, 2022):
# Where two headings read alike, the source gives them in different places.
# Experiments:
# Experiment in all cases: biochemical
# Format in all cases: binding
# [1] = target: cellular kinases of SH-SY5Y cells (Homo sapiens, UniProt P53350); details: 2µM, SH-SY5Y cells, read-out: KiNativ in-cell binding, % Inhibition, PLK1
# cellular kinases of SH-SY5Y cells (Homo sapiens, UniProt P53350), sequence (P53350 whole entry): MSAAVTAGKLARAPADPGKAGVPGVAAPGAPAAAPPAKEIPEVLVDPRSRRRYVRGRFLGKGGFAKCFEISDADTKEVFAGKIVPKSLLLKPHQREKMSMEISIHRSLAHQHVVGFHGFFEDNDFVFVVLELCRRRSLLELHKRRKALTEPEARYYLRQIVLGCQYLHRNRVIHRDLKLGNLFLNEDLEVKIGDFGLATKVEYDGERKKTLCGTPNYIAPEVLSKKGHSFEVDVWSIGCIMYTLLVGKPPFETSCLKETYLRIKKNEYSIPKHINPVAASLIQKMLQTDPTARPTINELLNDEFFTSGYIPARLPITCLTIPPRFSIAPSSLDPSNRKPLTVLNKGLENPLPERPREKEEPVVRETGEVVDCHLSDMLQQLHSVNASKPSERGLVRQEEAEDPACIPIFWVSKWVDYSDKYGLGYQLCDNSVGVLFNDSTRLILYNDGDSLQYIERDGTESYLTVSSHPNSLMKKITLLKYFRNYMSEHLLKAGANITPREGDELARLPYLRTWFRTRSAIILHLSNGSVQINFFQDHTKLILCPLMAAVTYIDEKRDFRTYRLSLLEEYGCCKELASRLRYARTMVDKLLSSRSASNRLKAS
# Description: (§1) As KINOMEscan is an in vitro assay, and as different cell types have variable kinase expression profiles we sought to determine the kinase binding profile in our SH-SY5Y TFEB-relocalization cell model. […] Bound kinases were pulled down and analyzed by mass spectrometry to determine the in situ kinase binding profile for each compound.
# [2] = target: T1, cellular kinases of SH-SY5Y cells (Homo sapiens, UniProt Q15418); details: 2µM, SH-SY5Y cells
# T1 construct: endogenous in cells; host or cells: SH-SY5Y
# T1 sequence (Q15418 whole entry): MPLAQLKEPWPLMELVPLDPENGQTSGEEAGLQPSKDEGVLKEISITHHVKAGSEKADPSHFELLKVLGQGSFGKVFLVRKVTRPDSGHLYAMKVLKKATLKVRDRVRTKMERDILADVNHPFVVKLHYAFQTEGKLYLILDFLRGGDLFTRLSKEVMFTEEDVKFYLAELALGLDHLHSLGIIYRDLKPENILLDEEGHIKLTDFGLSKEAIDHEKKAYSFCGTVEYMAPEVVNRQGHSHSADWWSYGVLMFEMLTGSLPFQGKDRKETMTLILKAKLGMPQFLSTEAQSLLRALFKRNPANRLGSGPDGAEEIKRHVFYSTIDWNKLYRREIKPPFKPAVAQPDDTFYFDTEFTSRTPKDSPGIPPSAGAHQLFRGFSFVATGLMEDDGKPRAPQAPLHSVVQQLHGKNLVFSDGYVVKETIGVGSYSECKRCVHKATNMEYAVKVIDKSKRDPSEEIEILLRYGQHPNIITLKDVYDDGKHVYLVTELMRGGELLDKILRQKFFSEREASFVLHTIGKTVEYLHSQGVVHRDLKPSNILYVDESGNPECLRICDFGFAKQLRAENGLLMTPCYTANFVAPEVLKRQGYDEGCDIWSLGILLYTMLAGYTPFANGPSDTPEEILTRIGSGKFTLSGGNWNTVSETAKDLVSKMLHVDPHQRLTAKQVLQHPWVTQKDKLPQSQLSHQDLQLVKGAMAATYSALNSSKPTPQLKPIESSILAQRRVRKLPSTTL
# Description: as §1
# [3] = target: cellular kinases of SH-SY5Y cells (Homo sapiens, UniProt Q99759); details: 2µM; SH-SY5Y cells; Labeling Site Lys1; ELASKQVQFDPDSPETSKEVSALECEIQLLK; read-out: KiNativ in-cell binding, % Inhibition, MAP3K3
# Description: as §1
# [4] = target: cellular kinases of SH-SY5Y cells (Homo sapiens, UniProt Q7KZI7); details: 2µM; SH-SY5Y cells; Labeling Site Lys1; EVAVKIIDKTQLNSSSLQK; read-out: KiNativ in-cell binding, % Inhibition, MARK2
# Description: as §1
# [5] = target: cellular kinases of SH-SY5Y cells (Homo sapiens, UniProt Q16512); details: 2µM; SH-SY5Y cells; Labeling Site Lys1; VLLSEFRPSGELFAIKALK; read-out: KiNativ in-cell binding, % Inhibition, PKN1
# Description: as §1
# [6] = target: T2, cellular kinases of SH-SY5Y cells (Homo sapiens, UniProt Q9H2G2); details: 2µM, SH-SY5Y cells
# T2 construct: endogenous in cells; host or cells: SH-SY5Y
# T2 sequence (Q9H2G2 whole entry): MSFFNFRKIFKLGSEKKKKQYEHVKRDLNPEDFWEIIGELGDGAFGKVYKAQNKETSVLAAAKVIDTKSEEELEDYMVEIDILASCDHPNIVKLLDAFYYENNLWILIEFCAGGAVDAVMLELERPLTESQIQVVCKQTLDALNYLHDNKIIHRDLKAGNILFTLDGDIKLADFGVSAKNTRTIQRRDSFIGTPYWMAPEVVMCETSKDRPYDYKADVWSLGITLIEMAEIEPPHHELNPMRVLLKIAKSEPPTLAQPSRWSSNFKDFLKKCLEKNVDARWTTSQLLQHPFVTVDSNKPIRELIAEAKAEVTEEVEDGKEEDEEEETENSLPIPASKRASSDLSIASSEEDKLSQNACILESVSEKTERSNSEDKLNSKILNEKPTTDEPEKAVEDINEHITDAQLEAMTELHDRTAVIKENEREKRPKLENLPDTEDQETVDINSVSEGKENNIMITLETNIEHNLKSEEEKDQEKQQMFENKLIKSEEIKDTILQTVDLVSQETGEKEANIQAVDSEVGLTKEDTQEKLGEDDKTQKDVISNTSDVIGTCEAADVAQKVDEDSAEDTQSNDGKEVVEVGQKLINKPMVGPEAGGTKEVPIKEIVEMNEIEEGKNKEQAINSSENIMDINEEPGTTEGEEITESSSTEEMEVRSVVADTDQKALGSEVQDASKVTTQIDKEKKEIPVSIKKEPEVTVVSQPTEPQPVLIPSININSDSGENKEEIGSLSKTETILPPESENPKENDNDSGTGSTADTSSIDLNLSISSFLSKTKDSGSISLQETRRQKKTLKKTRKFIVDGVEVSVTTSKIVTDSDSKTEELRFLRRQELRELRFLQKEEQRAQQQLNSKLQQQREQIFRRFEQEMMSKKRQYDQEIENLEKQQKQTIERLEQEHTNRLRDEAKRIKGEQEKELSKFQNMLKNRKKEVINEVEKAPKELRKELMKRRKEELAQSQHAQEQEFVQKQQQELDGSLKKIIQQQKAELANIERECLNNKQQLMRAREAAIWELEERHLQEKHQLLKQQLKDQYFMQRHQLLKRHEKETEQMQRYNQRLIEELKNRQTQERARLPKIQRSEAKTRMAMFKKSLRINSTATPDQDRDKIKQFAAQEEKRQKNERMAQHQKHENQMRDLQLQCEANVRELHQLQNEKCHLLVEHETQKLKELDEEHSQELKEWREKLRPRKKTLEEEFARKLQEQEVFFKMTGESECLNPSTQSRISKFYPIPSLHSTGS
# Description: as §1
# [7] = target: T3, cellular kinases of SH-SY5Y cells (Homo sapiens, UniProt Q9C0K7); details: 2µM; SH-SY5Y cells; labeling site Lys1; peptide HTPTGTLVTIKITNLENCNEER
# T3 construct: endogenous in cells; host or cells: SH-SY5Y
# Description: as §1
# [8] = target: T4, cellular kinases of SH-SY5Y cells (Homo sapiens, UniProt P45985); details: 2µM, SH-SY5Y cells; for inhibition at 2 µM: read-out: KiNativ in-cell binding, % Inhibition, MAP2K4
# T4 sequence (P45985 1-399): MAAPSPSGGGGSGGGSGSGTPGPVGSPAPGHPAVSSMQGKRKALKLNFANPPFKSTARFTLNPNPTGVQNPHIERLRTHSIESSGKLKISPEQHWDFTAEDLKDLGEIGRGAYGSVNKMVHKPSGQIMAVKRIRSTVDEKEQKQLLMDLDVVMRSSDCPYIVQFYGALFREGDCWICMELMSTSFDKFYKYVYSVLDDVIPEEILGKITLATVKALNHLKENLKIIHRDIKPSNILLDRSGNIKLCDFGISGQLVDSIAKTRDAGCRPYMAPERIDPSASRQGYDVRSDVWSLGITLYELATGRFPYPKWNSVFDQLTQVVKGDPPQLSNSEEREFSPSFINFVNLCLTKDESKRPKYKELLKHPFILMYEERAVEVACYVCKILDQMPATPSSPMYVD
# Description: as §1
# [9] = target: T5, cellular kinases of SH-SY5Y cells (Homo sapiens, UniProt Q9NYL2); details: 2µM; SH-SY5Y cells; Labeling Site Lys1; WISQDKEVAVKK; read-out: KiNativ in-cell binding, % Inhibition, MAP3K20/ZAK
# T5 construct: endogenous in cells; host or cells: SH-SY5Y
# Description: as §1
# [10] = target: T6, cellular kinases of SH-SY5Y cells (Homo sapiens, UniProt Q9NRH2); details: 2µM, SH-SY5Y cells, read-out: KiNativ in-cell binding, % Inhibition, SNRK
# T6 construct: endogenous in cells; host or cells: SH-SY5Y
# T6 sequence (Q9NRH2 whole entry): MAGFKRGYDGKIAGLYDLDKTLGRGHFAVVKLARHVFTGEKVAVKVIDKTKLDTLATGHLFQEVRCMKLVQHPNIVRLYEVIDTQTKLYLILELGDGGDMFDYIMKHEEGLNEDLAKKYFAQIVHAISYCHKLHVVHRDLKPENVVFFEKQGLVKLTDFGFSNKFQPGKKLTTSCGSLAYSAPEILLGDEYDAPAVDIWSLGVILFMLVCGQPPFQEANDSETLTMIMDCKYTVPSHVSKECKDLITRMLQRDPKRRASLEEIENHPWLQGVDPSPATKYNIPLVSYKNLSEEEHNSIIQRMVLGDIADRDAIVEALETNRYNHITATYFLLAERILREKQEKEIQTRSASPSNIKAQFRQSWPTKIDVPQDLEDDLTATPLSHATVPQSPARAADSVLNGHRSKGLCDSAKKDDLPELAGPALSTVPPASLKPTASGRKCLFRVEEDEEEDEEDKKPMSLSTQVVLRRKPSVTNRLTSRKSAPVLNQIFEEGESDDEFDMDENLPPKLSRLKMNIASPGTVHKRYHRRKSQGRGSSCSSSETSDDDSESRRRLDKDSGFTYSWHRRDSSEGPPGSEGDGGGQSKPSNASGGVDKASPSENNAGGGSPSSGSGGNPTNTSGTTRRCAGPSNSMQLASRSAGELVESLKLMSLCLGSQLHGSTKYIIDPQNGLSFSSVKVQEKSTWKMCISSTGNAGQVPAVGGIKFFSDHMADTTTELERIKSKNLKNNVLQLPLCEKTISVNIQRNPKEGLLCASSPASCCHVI
# Description: as §1
# [11] = target: cellular kinases of SH-SY5Y cells (Homo sapiens, UniProt P07948); details: 2µM; SH-SY5Y cells; labeling site Lys1; peptide VAVKTLKPGTMSVQAFLEEANLMK
# Description: as §1
# [12] = target: T7, cellular kinases of SH-SY5Y cells (Homo sapiens, UniProt Q13188); details: 2µM; SH-SY5Y cells; Labeling Site Lys1; ESGQVVAIKQVPVESDLQEIIK; read-out: KiNativ in-cell binding, % Inhibition, STK3/MST2
# T7 construct: endogenous in cells; host or cells: SH-SY5Y
# T7 sequence (Q13188 whole entry): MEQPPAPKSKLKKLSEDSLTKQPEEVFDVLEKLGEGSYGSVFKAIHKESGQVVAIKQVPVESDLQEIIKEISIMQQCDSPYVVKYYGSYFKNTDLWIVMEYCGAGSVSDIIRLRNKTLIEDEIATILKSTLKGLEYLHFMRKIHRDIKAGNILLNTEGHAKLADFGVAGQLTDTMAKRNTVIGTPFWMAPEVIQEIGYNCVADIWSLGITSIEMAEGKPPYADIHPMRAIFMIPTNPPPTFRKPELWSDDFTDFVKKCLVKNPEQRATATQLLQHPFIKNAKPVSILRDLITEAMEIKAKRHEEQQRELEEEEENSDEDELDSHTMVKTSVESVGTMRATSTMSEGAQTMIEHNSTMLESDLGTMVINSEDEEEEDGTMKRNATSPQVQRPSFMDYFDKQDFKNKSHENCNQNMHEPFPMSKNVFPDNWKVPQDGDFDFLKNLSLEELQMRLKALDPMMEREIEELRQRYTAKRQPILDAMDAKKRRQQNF
# Description: as §1
# [13] = target: T8, cellular kinases of SH-SY5Y cells (Homo sapiens, UniProt P23743)
# T8 construct: endogenous in cells; host or cells: SH-SY5Y
# Description: as §1
# [14] = target: T9, cellular kinases of SH-SY5Y cells (Homo sapiens, UniProt O75063); details: 2µM; SH-SY5Y cells; Labeling Site ATP; ETEPACADGDIMEGSVTLWLPDVWPLQKHR; read-out: KiNativ in-cell binding, % Inhibition, FAM20B
# T9 construct: endogenous in cells; host or cells: SH-SY5Y
# T9 sequence (O75063 whole entry): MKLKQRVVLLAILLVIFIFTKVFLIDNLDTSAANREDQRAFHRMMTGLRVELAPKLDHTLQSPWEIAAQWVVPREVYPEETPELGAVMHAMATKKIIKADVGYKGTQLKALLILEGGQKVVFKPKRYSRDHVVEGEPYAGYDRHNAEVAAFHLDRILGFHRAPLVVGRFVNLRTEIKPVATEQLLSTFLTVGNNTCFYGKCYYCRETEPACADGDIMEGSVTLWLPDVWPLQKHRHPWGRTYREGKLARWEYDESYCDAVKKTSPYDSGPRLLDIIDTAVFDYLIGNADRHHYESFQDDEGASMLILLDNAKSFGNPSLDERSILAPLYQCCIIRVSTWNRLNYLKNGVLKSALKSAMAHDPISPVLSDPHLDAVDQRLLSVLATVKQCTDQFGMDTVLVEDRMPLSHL
# Description: as §1
# [15] = target: T10, cellular kinases of SH-SY5Y cells (Homo sapiens, UniProt Q12851); details: 2µM; SH-SY5Y cells; Labeling Site Lys2; DIKGANLLLTLQGDVK; read-out: KiNativ in-cell binding, % Inhibition, GCK
# T10 construct: endogenous in cells; host or cells: SH-SY5Y
# T10 sequence (Q12851 whole entry): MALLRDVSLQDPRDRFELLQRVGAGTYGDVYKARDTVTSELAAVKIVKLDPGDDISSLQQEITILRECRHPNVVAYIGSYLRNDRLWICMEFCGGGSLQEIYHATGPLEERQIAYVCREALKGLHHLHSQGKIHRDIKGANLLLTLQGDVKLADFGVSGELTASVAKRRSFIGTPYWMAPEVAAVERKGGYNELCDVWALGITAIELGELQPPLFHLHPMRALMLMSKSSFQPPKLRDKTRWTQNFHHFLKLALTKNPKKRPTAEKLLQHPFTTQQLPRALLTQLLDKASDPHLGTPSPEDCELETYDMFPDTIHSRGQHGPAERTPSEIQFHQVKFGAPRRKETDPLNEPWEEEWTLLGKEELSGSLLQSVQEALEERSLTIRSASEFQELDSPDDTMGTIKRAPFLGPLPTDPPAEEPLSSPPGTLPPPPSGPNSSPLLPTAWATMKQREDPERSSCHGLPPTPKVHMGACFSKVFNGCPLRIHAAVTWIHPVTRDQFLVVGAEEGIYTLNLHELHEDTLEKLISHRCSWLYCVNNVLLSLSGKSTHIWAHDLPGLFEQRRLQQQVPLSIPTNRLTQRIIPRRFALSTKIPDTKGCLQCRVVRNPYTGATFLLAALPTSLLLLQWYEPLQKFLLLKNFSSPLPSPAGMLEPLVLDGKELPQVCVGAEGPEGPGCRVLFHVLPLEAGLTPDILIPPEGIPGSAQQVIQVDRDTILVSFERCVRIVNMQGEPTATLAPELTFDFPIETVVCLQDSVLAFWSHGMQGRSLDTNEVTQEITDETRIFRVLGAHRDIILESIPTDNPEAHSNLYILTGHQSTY
# Description: as §1
# [16] = target: T11, cellular kinases of SH-SY5Y cells (Homo sapiens, UniProt Q8NB16); details: 2µM; SH-SY5Y cells; labeling site Lys1; peptide APVAIKVFK
# T11 construct: endogenous in cells; host or cells: SH-SY5Y
# Description: as §1
# [17] = target: cellular kinases of SH-SY5Y cells (Homo sapiens, UniProt P19784); details: 2µM; SH-SY5Y cells; labeling site Lys2; peptide DVKPHNVMIDHQQK
# Description: as §1
# [18] = target: T12, cellular kinases of SH-SY5Y cells (Homo sapiens, UniProt Q96BR1); details: 2µM; SH-SY5Y cells; Labeling Site Lys1; FYAVKVLQK; read-out: KiNativ in-cell binding, % Inhibition, SGK3
# T12 construct: endogenous in cells; host or cells: SH-SY5Y
# Description: as §1
structure (smiles),measurement,setting,value
Cc1cccc(-c2nc(Nc3ccc4ncsc4c3)c3ccccc3n2)n1 [NK140],inhibition at 2 µM,"[1]; Labeling Site Lys1, CFEISDADTKEVFAGKIVPK",26%
same,inhibition at 2 µM,"[1]; Labeling Site Lys2, DLKLGNLFLNEDLEVK",9%
same,inhibition at 2 µM,"[2]; Labeling Site Activation Loop, LTDFGLSKEAIDHEKK, read-out: KiNativ in-cell binding, % Inhibition, RPS6KA1/RSK1 domain1",-25.4%
same,inhibition at 2 µM,"[2]; Labeling Site Lys2, DLKPSNILYVDESGNPECLR, read-out: KiNativ in-cell binding, % Inhibition, RPS6KA1/RSK1 domain2",-53.6%
same,inhibition at 2 µM,[3],12.5%
same,inhibition at 2 µM,[4],10.5%
same,inhibition at 2 µM,[5],3%
same,inhibition at 2 µM,"[6]; Labeling Site Lys1, AQNKETSVLAAAKVIDTK, read-out: KiNativ in-cell binding, % Inhibition, SLK (SLK OR FYN/SLK)",16.4%
same,inhibition at 2 µM,"[6]; Labeling Site Lys2, DLKAGNILFTLDGDIK, read-out: KiNativ in-cell binding, % Inhibition, SLK",26.7%
same,"KiNativ in-cell binding, STRADB",[7],0.5
same,inhibition at 2 µM,"[8]; Labeling Site Activation Loop, LCDFGISGQLVDSIAKTR",-2.3%
same,inhibition at 2 µM,"[8]; Labeling Site Lys2, DIKPSNILLDR",4%
same,"KiNativ in-cell binding, MAP2K4","[8]; labeling site Lys1, peptide MVHKPSGQIMAVKR",26.1
same,inhibition at 2 µM,[9],-2%
same,inhibition at 2 µM,"[10]; Labeling Site Lys1, VAVKVIDK",37.3%
same,inhibition at 2 µM,"[10]; Labeling Site Lys2, DLKPENVVFFEK",36.3%
same,"KiNativ in-cell binding, LYN",[11],-32.9
same,inhibition at 2 µM,[12],31.6%
same,"KiNativ in-cell binding, DGKA",[13],-19.6
same,inhibition at 2 µM,[14],-39.2%
same,inhibition at 2 µM,[15],11.6%
same,"KiNativ in-cell binding, MLKL",[16],-57.5
same,"KiNativ in-cell binding, CSNK2A2",[17],-67.6
same,inhibition at 2 µM,[18],1%
